Laboratory results taken from ChEMBL document CHEMBL5154933, “Development of Lipo-γ-AA Peptides as Potent Antifungal Agents” (J Med Chem, 2022).
In brackets after ≈: the same amount, converted by molar mass. Activity calls are given as the source filed them. No cut-off for these calls is given here.

Legend:
[1] = Hemolytic activity in human RBC incubated for 1 hr by microplate reader method; format: toxicity, cell-based, Erythrocyte; details: red blood cells (erythrocytes)
[2] = Selectivity ratio of HC50 for hemolytic activity in human RBC to MIC for antifungal activity against Cryptococcus neoformans 5-FC; format: toxicity; details: red blood cells (erythrocytes)
[3] = Selectivity ratio of HC50 for hemolytic activity in human RBC to MIC for antifungal activity against Candida albicans CA17; format: toxicity; details: red blood cells (erythrocytes)
[4] = Selectivity ratio of HC50 for hemolytic activity in human RBC to MIC for antifungal activity against Candida albicans CARG5; format: toxicity; details: red blood cells (erythrocytes)
[5] = Selectivity ratio of HC50 for hemolytic activity in human RBC to MIC for antifungal activity against Cryptococcus neoformans H99; format: toxicity; details: red blood cells (erythrocytes)
[6] = Selectivity ratio of HC50 for hemolytic activity in human RBC to MIC for antifungal activity against Candida parapsilosis ATCC 22019; format: toxicity; details: red blood cells (erythrocytes)
Cryptococcus neoformans [7] = assay: Antifungal activity against Cryptococcus neoformans 5-FC assessed as fungal growth inhibition by broth microdilution assay; format: functional
[8] = tested on: Cryptococcus deuterogattii; assay: Antifungal activity against Cryptococcus gattii VGII R265 assessed as fungal growth inhibition by broth microdilution assay; format: functional, Cryptococcus gattii species complex
Candida parapsilosis = assay: Antifungal activity against Candida parapsilosis ATCC 22019 assessed as fungal growth inhibition by broth microdilution assay; format: functional; details: Lodderomyces parapsilosis
Candida albicans [9] = assay: Antifungal activity against Candida albicans CARG5 assessed as fungal growth inhibition by broth microdilution assay; format: functional
Candida albicans [10] = assay: Antifungal activity against Candida albicans CA17 assessed as fungal growth inhibition by broth microdilution assay; format: functional
Candida albicans [11] = assay: Antifungal activity against Candida albicans 28A assessed as fungal growth inhibition by broth microdilution assay; format: functional
[12] = Selectivity ratio of HC50 for hemolytic activity in human RBC to MIC for antifungal activity against Candida krusei ATCC6258; format: toxicity; details: red blood cells (erythrocytes)
Cryptococcus neoformans [13] = assay: Antifungal activity against Cryptococcus neoformans H99 assessed as fungal growth inhibition by broth microdilution assay; format: functional
[14] = Selectivity ratio of HC50 for hemolytic activity in human RBC to MIC for antifungal activity against Cryptococcus gattii R265; format: toxicity; details: red blood cells (erythrocytes)
[15] = Selectivity ratio of HC50 for hemolytic activity in human RBC to MIC for antifungal activity against Candida albicans SC5314; format: toxicity; details: red blood cells (erythrocytes)
Pichia kudriavzevii = assay: Antifungal activity against Candida krusei ATCC6258 assessed as fungal growth inhibition by broth microdilution assay; format: functional
Candida albicans [16] = assay: Antifungal activity against Candida albicans SC5314 assessed as fungal growth inhibition by broth microdilution assay; format: functional
[17] = Selectivity ratio of HC50 for hemolytic activity in human RBC to MIC for antifungal activity against Candida albicans 28A; format: toxicity; details: red blood cells (erythrocytes)
[18] = Toxicity against Galleria mellonella larva infected with Candida albicans SC5314 assessed as increase in survival rate at 8 mg/kg measured for 14 days; format: organism-based; details: in vivo, 336 h, time 14 day
Aspergillus fumigatus [19] = assay: Antifungal activity against Aspergillus fumigatus shjt40 assessed as fungal growth inhibition by broth microdilution assay; format: functional
Mucor racemosus [20] = assay: Antifungal activity against Mucor racemosus MZ140 assessed as fungal growth inhibition by broth microdilution assay; format: functional
Mucor racemosus [21] = assay: Antifungal activity against Mucor racemosus R715 assessed as fungal growth inhibition by broth microdilution assay; format: functional
Aspergillus fumigatus [22] = assay: Antifungal activity against Aspergillus fumigatus AF293 assessed as fungal growth inhibition by broth microdilution assay; format: functional
Candida albicans [23] = assay: Fungicidal activity against Candida albicans SC5314 assessed as fungal growth inhibition incubated for 24 hrs by resazurin dye based assay; format: functional
Cell membrane = assay: Induction of membrane permeabilization in Candida albicans SC5314 assessed as distruption of fungal cell membrane by measuring PI positive cells at 8 times MIC measured after 1 hrs by propidium iodide and DAPI staining based fluorescence microscopic analysis; format: subcellular

Compound | HC50 at 1 h [1] | selectivity ratio [2] | selectivity ratio [3] | selectivity ratio [4] | selectivity ratio [5] | selectivity ratio [6] | MIC50 (Cryptococcus neoformans [7]) | MIC50 [8] | MIC50 (Candida parapsilosis) | MIC50 (Candida albicans [9]) | MIC50 (Candida albicans [10]) | MIC50 (Candida albicans [11]) | selectivity ratio [12] | MIC50 (Cryptococcus neoformans [13]) | selectivity ratio [14] | selectivity ratio [15] | MIC50 (Pichia kudriavzevii) | MIC50 (Candida albicans [16]) | selectivity ratio [17] | further results
CCCCCCCCCCCCCCCC(=O)N[C@@H](CCCCN)C(=O)N[C@@H](Cc1ccccc1)CN(CC(N)=O)C(=O)CCN | > 250 µg/mL | ≤ 125 | ≤ 125 | ≤ 125 | ≤ 125 | ≤ 125 | 4 µg/mL (≈ 6.2 µM) | 4 µg/mL (≈ 6.2 µM) | 2 µg/mL (≈ 3.1 µM) | 4 µg/mL (≈ 6.2 µM) | 4 µg/mL (≈ 6.2 µM) | 4 µg/mL (≈ 6.2 µM) | ≤ 125 | 4 µg/mL (≈ 6.2 µM) | ≤ 125 | ≤ 125 | 2 µg/mL (≈ 3.1 µM) | 4 µg/mL (≈ 6.2 µM) | ≤ 125 | –
OC(Cn1cncn1)(Cn1cncn1)c1ccc(F)cc1F [FLUCONAZOLE] | – | – | – | – | – | – | 2 µg/mL (≈ 6.53 µM) | 4 µg/mL (≈ 13.1 µM) | 2 µg/mL (≈ 6.53 µM) | > 128 µg/mL | > 128 µg/mL | > 128 µg/mL | – | 4 µg/mL (≈ 13.1 µM) | – | – | 32 µg/mL (≈ 104 µM) | 1 µg/mL (≈ 3.27 µM) | – | Activity [18]: Non-Toxic; MIC50 (Aspergillus fumigatus [19]): > 32 µg/mL; MIC50 (Mucor racemosus [20]): > 32 µg/mL; MIC50 (Mucor racemosus [21]): > 32 µg/mL; MIC50 (Aspergillus fumigatus [22]): > 32 µg/mL; MFC (Candida albicans [23]): > 16 µg/mL
CCCCCCCCCCCCCCCC(=O)N[C@@H](CCCCN)C(=O)N[C@@H](Cc1ccccc1)CN(CC(N)=O)C(=O)CN | > 250 µg/mL | ≤ 125 | ≤ 125 | ≤ 125 | ≤ 125 | ≤ 125 | 8 µg/mL (≈ 12.7 µM) | 8 µg/mL (≈ 12.7 µM) | 4 µg/mL (≈ 6.34 µM) | 8 µg/mL (≈ 12.7 µM) | 8 µg/mL (≈ 12.7 µM) | 8 µg/mL (≈ 12.7 µM) | ≤ 125 | 8 µg/mL (≈ 12.7 µM) | ≤ 125 | ≤ 125 | 4 µg/mL (≈ 6.34 µM) | 4 µg/mL (≈ 6.34 µM) | ≤ 125 | –
C[C@@H]1[C@H](O)[C@@H](C)/C=C/C=C/C=C/C=C/C=C/C=C/C=C/[C@H](O[C@@H]2O[C@H](C)[C@@H](O)[C@H](N)[C@@H]2O)C[C@@H]2O[C@](O)(C[C@@H](O)C[C@@H](O)[C@H](O)CC[C@@H](O)C[C@@H](O)CC(=O)O[C@H]1C)C[C@H](O)[C@H]2C(=O)O | – | – | – | – | – | – | – | – | – | – | – | – | – | – | – | – | – | – | – | Activity (Cell membrane): Active
